Measured values published in paper PMC7293010, “DXO/Rai1 enzymes remove 5′-end FAD and dephospho-CoA caps on RNAs” (Nucleic Acids Research, 2020).

Assays:
mDXO = molecular target: T1, mDXO (Mus musculus, UniProt O70348, E192S/E234Q/E253Q); assay: X-ray crystal structure, crystal soaked in […] CaCl2 for […] h, then in […] ligand for […] h; type: binding; settings: 1.6 Å; active site; pH 6.8, 20°C
T1 construct: gene Dxo; full-length, His tag, pET28a, E. coli BL21 (DE3) Rosetta, Ni-NTA and gel filtration; residues 1-26 with His tag and 385-397 not seen in density
T1 sequence (O70348 1-397 E192S/E234Q/E253Q): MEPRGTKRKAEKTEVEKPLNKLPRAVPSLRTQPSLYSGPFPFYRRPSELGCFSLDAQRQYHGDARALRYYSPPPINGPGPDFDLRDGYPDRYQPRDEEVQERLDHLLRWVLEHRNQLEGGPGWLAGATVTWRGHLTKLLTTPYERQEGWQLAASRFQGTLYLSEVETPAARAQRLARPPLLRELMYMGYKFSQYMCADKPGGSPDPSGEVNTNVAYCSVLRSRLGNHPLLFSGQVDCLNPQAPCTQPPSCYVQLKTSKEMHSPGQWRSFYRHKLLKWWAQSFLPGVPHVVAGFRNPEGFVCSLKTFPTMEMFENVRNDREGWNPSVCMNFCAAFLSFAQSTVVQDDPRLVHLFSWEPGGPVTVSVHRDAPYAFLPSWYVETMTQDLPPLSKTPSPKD

SpRai1 = molecular target: T2, SpRai1 (Schizosaccharomyces pombe, UniProt O13836); assay: X-ray crystal structure, crystal soaked […] h in […] ligand; type: binding; settings: 1.9 Å; two magnesium ions observed; active site
T2 construct: gene din1; full-length, pET28a (for crystallization), E. coli BL21 (DE3) Rosetta, Ni-NTA and gel filtration
T2 sequence (O13836 1-352): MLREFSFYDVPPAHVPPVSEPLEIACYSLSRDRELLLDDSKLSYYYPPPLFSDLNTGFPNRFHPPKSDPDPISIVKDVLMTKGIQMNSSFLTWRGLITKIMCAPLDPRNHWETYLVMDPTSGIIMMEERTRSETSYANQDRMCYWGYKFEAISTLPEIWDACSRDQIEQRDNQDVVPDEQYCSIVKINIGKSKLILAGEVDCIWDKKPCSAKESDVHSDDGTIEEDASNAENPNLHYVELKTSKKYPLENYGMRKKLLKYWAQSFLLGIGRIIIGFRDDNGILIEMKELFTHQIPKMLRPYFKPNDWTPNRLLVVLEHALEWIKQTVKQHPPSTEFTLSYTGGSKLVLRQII

SMILES: CC(C)(COP(=O)(O)OP(=O)(O)OC[C@H]1O[C@@H](n2cnc3c(N)ncnc32)[C@H](O)[C@@H]1OP(=O)(O)O)[C@@H](O)C(=O)NCCC(=O)NCCS [CoA]
- X-ray crystal structure, crystal soaked in 20 mM CaCl2 for 1 h, then in 10 mM li (mDXO): crystal structure of the E192S/E234Q/E253Q mutant of mDXO in complex with CoA

SMILES: Cc1cc2nc3c(=O)[nH]c(=O)nc-3n(C[C@H](O)[C@H](O)[C@H](O)COP(=O)(O)OP(=O)(O)OC[C@H]3O[C@@H](n4cnc5c(N)ncnc54)[C@H](O)[C@@H]3OP(=O)(O)O)c2cc1C [3′-FADP]
- X-ray crystal structure, crystal soaked 1 h in 10 mM ligand (SpRai1): good-quality electron density for FADP in complex with wild-type SpRai1
